{"source": "patent US9637470B2", "about": "“Treatment for substance use disorders and stress disorders” (Baylor College of Medicine, priority 2013, dated 2017)", "key": {"PK parameters in dog": {"assay": "PK parameters in dog", "conditions": "in vivo"}, "AMES": {"system": "AMES", "assay": "Genotoxicity testing, AMES"}, "5-HT2B [1]": {"biological_target": "T1, 5-HT2B (Homo sapiens, UniProt P41595)", "T1 sequence (P41595 whole entry, species assumed)": "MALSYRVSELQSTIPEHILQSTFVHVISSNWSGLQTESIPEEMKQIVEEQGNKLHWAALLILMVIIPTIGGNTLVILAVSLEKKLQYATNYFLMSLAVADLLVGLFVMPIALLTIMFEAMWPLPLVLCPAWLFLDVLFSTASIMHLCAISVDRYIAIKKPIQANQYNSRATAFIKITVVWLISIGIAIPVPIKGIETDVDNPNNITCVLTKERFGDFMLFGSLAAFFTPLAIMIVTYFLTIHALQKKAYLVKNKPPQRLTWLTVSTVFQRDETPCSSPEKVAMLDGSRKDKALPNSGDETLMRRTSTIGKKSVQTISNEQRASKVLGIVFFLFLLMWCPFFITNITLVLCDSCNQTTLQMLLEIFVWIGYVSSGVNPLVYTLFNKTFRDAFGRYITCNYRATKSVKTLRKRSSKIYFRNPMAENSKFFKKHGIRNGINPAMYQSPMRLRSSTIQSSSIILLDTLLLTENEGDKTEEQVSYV", "assay": "Receptor binding studies, 5-HT2B", "conditions": "at 10 uM", "source_text": "(§1) Binding at σ1 is not problematic, as SSRIs are known to have similar activities."}, "hERG channel": {"biological_target": "hERG channel (Homo sapiens, UniProt Q12809)", "sequence (Q12809 whole entry)": "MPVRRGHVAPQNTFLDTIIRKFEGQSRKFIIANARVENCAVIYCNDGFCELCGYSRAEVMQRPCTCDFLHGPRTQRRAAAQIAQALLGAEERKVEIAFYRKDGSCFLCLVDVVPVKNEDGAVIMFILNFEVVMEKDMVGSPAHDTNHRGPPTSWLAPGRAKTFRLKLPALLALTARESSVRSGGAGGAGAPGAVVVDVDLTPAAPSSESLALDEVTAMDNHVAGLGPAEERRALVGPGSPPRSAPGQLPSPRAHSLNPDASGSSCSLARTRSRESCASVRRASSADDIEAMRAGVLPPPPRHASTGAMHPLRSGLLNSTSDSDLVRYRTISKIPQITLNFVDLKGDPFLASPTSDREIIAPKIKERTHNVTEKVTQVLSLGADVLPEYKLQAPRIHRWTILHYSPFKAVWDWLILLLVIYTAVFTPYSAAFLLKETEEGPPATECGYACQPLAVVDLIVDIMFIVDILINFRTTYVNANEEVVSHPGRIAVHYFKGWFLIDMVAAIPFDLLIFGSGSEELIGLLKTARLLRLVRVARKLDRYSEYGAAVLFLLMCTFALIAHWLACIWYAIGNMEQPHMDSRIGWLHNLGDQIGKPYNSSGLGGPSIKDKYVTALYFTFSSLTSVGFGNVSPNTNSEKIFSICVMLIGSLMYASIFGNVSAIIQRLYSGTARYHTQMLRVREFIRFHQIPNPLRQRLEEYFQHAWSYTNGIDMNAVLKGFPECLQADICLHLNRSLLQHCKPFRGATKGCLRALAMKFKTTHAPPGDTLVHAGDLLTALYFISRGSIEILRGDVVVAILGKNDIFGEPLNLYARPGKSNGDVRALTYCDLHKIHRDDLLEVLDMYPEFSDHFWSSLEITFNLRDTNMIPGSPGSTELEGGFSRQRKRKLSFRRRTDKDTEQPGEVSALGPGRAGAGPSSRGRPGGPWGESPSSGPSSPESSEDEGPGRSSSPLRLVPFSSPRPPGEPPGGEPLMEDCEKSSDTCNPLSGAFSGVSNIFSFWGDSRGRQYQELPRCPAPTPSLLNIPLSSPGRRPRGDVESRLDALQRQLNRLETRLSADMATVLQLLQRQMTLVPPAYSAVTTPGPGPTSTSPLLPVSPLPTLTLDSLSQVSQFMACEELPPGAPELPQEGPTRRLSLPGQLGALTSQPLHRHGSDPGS", "assay": "hERG channel inhibition", "conditions": "accompanied by offsetting inhibition of other ion channels"}, "CYP450 3A4": {"biological_target": "CYP450 3A4 (Homo sapiens, UniProt P08684)", "sequence (P08684 whole entry)": "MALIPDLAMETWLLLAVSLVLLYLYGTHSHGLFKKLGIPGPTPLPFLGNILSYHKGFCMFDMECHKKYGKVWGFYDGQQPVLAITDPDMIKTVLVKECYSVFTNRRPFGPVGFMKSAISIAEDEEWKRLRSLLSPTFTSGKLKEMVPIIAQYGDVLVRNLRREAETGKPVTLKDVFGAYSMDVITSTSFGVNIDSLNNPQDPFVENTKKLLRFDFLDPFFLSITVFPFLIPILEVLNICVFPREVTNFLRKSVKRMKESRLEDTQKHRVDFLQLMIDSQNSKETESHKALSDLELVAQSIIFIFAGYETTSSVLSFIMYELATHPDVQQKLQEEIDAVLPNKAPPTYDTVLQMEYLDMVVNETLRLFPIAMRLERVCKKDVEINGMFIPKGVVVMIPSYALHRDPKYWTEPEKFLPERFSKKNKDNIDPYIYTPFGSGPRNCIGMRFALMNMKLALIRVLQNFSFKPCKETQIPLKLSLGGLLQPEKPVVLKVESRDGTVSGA", "assay": "CYP450 inhibition, 3A4", "type": "in vitro ADME"}, "[2]": {"assay": "PK, distribution and excretion in rat", "type": "in vivo", "conditions": "for half-life: in vivo"}, "[3]": {"assay": "Human pharmacokinetic studies", "conditions": "in vivo, read-out: elimination half-life (converted)", "protocol": "These studies will use double-blind, placebo-controlled experimental designs. Human pharmacokinetic studies indicate that EC2 has an elimination half-life of approximately 7 hours, allowing twice daily dosing."}, "CYP450 2D6": {"biological_target": "CYP450 2D6 (Homo sapiens, UniProt P10635)", "sequence (P10635 whole entry)": "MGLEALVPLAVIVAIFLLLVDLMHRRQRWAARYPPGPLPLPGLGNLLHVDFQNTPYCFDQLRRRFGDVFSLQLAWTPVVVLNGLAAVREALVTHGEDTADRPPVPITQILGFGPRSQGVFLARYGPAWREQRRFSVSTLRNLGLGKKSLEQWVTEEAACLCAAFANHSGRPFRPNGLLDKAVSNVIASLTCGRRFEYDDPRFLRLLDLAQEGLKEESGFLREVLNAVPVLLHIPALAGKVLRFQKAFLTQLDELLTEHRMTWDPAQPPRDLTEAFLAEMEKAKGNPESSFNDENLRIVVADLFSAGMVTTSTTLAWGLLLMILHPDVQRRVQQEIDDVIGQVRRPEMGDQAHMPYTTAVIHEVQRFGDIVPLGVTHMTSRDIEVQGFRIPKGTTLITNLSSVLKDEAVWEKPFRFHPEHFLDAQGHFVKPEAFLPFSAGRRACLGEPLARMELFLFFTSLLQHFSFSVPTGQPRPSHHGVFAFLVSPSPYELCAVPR", "assay": "CYP450 inhibition, 2D6", "type": "in vitro ADME", "conditions": "at 10 uM"}, "[4]": {"assay": "ADM&E studies: stability and protein binding", "type": "in vitro ADME"}, "[5]": {"assay": "Multiple ascending dose study in healthy volunteers", "type": "in vivo, human", "conditions": "human, plasma, daily doses up to 11 days, for most doses, read-out: elimination half-life during chronic treatment (converted)", "protocol": "(§2) This double-blind, placebo controlled study enrolled 50 participants divided into 10 per dosing group. In each group of 10, 7 received active medication and 3 received placebo to maintain the blind. The doses tested were 25 mg BID, 75 mg QD, 50 mg BID, 75 mg BID, and 100 mg BID."}, "healthy volunteers": {"system": "healthy volunteers", "assay": "Multiple ascending dose study in healthy volunteers", "type": "in vivo, human", "conditions": "multiple dose", "protocol": "as §2"}, "rats": {"system": "rats", "assay": "Respiratory testing in rats", "type": "in vivo, rat", "conditions": "up to 90 mg/kg"}, "CYP 2B6": {"system": "CYP 2B6", "assay": "CYP induction, 2B6", "type": "in vitro ADME"}, "serotonin transporter": {"biological_target": "T2, serotonin transporter (Rattus norvegicus, UniProt P31652)", "T2 construct": "from tissue; host or cells: rat synaptosomes", "assay": "Monoamine uptake into rat synaptosomes, serotonin", "type": "biochemical"}, "mouse lymphoma": {"system": "mouse lymphoma", "assay": "Genotoxicity testing, mouse lymphoma chromosome aberration"}, "[6]": {"assay": "Metabolic stability in human liver microsomes", "type": "in vitro ADME"}, "5-HT2B [7]": {"biological_target": "T1, 5-HT2B", "assay": "Functional activity at 5-HT2B receptor", "source_text": "as §1"}, "[8]": {"biological_target": "recombinant human norepinephrine transporter protein (NET) (Homo sapiens, UniProt P23975)", "sequence (P23975 whole entry)": "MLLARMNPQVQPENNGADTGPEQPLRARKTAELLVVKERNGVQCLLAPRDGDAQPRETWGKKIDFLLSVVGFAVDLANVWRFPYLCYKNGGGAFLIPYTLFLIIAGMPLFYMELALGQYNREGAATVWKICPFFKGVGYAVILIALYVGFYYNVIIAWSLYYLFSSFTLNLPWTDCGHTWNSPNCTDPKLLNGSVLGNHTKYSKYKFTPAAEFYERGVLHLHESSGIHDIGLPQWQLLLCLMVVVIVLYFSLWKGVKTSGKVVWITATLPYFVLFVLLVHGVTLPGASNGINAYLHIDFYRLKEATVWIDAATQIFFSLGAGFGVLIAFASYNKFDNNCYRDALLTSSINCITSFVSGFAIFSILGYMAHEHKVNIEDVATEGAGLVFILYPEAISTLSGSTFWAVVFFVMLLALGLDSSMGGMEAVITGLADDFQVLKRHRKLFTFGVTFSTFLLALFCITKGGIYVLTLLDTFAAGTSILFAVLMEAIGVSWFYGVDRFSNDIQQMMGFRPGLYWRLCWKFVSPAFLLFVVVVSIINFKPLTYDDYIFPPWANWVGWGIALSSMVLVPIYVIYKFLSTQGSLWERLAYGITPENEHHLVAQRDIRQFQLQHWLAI", "assay": "IC50 binding profile, competitive inhibition assay, NET", "protocol": "Amitifadine and DOV 102,677 are enantiomers and differ only in the stereochemistry of the cyclopropyl pyrrolidine carbon to which the dichlorophenyl group is bonded. In addition to the structural differences, the compounds differ greatly in their IC50 binding profiles at the three corresponding monoamine transporter proteins. The IC50 binding profiles were measured for each of the compounds in Table 5 by competitive inhibition assays using recombinant human serotonin transporter protein, recombinant human norepinephrine transporter protein, and recombinant human dopamine transporter protein Compounds were screened at a range of concentrations and were fit to a curve to determine IC50 values, the concentration at which 50% inhibition occurs."}, "dopamine transporter": {"biological_target": "T3, dopamine transporter (Rattus norvegicus, UniProt P23977)", "T3 construct": "from tissue; host or cells: rat synaptosomes", "assay": "Monoamine uptake into rat synaptosomes, dopamine", "type": "biochemical"}, "[9]": {"system": "synaptic levels of serotonin, norepinephrine, and dopamine in rat prefrontal cortex", "assay": "Synaptic monoamine levels in rat prefrontal cortex after oral treatment", "type": "in vivo", "conditions": "greater effects on serotonin and norepinephrine than dopamine"}, "CYP 1A2": {"system": "CYP 1A2", "assay": "CYP induction, 1A2", "type": "in vitro ADME"}, "[10]": {"system": "56 receptors, channels, and transporters", "assay": "Receptor binding studies, panel of 56 receptors, channels, and transporters", "conditions": "10 μM; all sites except σ1 and 5-HT2B", "source_text": "as §1"}, "[11]": {"biological_target": "T4, norepinephrine transporter (Rattus norvegicus, UniProt Q63380)", "T4 construct": "from tissue; host or cells: rat synaptosomes", "T4 sequence (Q63380 1-617)": "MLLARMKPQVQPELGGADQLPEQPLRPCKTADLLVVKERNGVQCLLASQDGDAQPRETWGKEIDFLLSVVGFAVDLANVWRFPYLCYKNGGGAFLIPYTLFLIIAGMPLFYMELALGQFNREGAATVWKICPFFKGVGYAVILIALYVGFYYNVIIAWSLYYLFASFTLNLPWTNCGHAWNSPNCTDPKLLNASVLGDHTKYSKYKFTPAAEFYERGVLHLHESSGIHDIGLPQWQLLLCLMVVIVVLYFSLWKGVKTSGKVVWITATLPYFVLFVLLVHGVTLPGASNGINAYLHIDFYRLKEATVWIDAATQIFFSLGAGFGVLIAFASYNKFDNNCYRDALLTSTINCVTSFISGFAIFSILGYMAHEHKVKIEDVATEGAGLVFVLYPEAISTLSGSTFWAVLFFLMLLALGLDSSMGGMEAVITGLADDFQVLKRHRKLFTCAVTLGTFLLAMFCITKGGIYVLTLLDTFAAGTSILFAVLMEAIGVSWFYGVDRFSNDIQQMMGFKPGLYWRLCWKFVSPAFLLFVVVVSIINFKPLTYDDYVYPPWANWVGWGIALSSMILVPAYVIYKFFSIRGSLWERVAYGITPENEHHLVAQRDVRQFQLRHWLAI", "assay": "Monoamine uptake into rat synaptosomes, norepinephrine", "type": "biochemical"}, "CYP450 2C19": {"biological_target": "CYP450 2C19 (Homo sapiens, UniProt P33261)", "sequence (P33261 whole entry)": "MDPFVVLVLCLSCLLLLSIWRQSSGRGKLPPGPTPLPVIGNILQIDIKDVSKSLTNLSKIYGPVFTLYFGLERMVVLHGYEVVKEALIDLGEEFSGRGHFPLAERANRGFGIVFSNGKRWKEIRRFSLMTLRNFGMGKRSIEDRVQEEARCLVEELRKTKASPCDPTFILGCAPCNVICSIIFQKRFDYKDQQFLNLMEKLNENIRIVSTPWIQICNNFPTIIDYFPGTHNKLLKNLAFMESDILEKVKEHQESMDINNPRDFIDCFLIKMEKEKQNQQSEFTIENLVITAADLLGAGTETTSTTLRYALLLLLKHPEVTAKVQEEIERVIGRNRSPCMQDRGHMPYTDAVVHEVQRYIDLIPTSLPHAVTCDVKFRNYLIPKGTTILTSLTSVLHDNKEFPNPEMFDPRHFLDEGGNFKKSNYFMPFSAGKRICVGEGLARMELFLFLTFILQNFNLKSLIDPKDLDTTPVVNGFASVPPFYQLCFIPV", "assay": "CYP450 inhibition, 2C19", "type": "in vitro ADME"}, "CYP450 1A2": {"biological_target": "CYP450 1A2 (Homo sapiens, UniProt P05177)", "sequence (P05177 whole entry)": "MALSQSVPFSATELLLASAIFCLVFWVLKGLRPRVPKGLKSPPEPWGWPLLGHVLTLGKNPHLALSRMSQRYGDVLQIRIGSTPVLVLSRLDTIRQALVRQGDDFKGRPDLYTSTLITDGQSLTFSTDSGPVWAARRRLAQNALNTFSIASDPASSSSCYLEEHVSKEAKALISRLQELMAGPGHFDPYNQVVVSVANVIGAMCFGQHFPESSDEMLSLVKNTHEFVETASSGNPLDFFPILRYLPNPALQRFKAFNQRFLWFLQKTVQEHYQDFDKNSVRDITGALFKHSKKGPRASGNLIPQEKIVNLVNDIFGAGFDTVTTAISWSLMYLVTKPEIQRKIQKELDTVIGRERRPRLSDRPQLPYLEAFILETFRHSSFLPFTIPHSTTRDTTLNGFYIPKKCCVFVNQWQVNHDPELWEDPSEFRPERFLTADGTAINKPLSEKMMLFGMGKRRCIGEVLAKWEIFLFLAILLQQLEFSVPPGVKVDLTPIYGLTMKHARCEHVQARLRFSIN", "assay": "CYP450 inhibition, 1A2", "type": "in vitro ADME"}, "[12]": {"assay": "Teratogenicity study (segment II) in rats", "conditions": "rat, in vivo"}}, "note": "pIC50: −log10 of the molar value. “Also recorded” adds a separate entry of the source. Read-outs that look alike come from different tables or passages of the source."}
{"smiles": "c1ccc2cc([C@H]([C@H]3CCCNC3)n3ncnn3)ccc2c1", "note": "[Example Compound 2, (3S)-3-[(S)-naphthalen-2-yl(2H-tetrazol-2-yl)methyl]piperidine]", "values": [{"measurement": "half-life", "setting": "PK parameters in dog", "result": 2, "unit": "h"}, {"measurement": "bioavailability", "setting": "PK parameters in dog; po, dogs", "result": 45, "unit": "%"}, {"measurement": "genotoxicity, AMES", "setting": "AMES", "result": "negative"}, {"measurement": "inhibition of binding at 5-HT2B", "setting": "5-HT2B [1]", "result": 56, "unit": "% inhibition"}, {"measurement": "hERG channel inhibition", "setting": "hERG channel", "result": "moderate"}, {"measurement": "inhibition of CYP450 3A4", "setting": "CYP450 3A4", "result": "does not inhibit"}, {"measurement": "Kp", "setting": "[2]; brain, rat, after oral dosing, read-out: AUC ratio (brain/plasma)", "result": 0.45}, {"measurement": "accumulation in tissue", "setting": "[2]; rat, after oral administration", "result": "does not accumulate; also recorded: without significant accumulation"}, {"measurement": "tissue distribution", "setting": "[2]; rat, after oral administration", "result": "widely distributed across most tissues"}, {"measurement": "half-life", "setting": "[2]; rat, T1/2", "result": 3.7, "unit": "h"}, {"measurement": "half-life", "setting": "[2]; rat, po, elimination half-life in brain", "result": 12.6, "unit": "h"}, {"measurement": "half-life", "setting": "[2]; rat, po, elimination half-life in plasma", "result": 5, "unit": "h"}, {"measurement": "route of excretion", "setting": "[2]; rodents", "result": "mainly excreted in feces"}, {"measurement": "half-life", "setting": "[3]", "result": "~7", "unit": "h"}, {"measurement": "inhibition of CYP450 2D6", "setting": "CYP450 2D6", "result": "does inhibit"}, {"measurement": "protein binding", "setting": "[4]", "result": "modest"}, {"measurement": "stability", "setting": "[4]", "result": "stable"}, {"measurement": "half-life", "setting": "[5]", "result": "~6", "unit": "h"}, {"measurement": "effects on vital signs or on QTc", "setting": "healthy volunteers", "result": "no effects"}, {"measurement": "primary adverse events", "setting": "healthy volunteers", "result": "nausea, vomiting and headache"}, {"measurement": "plasma concentration versus dose", "setting": "healthy volunteers; across all doses", "result": "proportional to dose"}, {"measurement": "respiratory testing", "setting": "rats", "result": "negative"}, {"measurement": "induction of CYP 2B6", "setting": "CYP 2B6", "result": "does not induce"}, {"measurement": "pIC50", "setting": "serotonin transporter", "result": 7.43}, {"measurement": "genotoxicity, mouse lymphoma chromosome aberration", "setting": "mouse lymphoma", "result": "negative"}, {"measurement": "metabolic stability", "setting": "[6]", "result": "high"}, {"measurement": "activity at 5-HT2B receptor", "setting": "5-HT2B [7]", "result": "antagonist activity"}, {"measurement": "pIC50", "setting": "[8]", "result": 8.00}, {"measurement": "pIC50", "setting": "dopamine transporter", "result": 7.13}, {"measurement": "effect on synaptic levels of serotonin, norepinephrine, and dopamine", "setting": "[9]", "result": "clear effects on all three monoamines"}, {"measurement": "induction of CYP 1A2", "setting": "CYP 1A2", "result": "does not induce"}, {"measurement": "binding at the other sites of the panel", "setting": "[10]", "result": "no significant binding"}, {"measurement": "pIC50", "setting": "[11]", "result": 7.19}, {"measurement": "inhibition of CYP450 2C19", "setting": "CYP450 2C19", "result": "does not inhibit"}, {"measurement": "inhibition of CYP450 1A2", "setting": "CYP450 1A2", "result": "does not inhibit"}, {"measurement": "NOAEL", "setting": "[12]; read-out: NOAEL fetal development", "result": 90, "unit": "mg/kg/day"}, {"measurement": "NOAEL", "setting": "[12]; read-out: NOAEL fetal growth", "result": 30, "unit": "mg/kg/day"}, {"measurement": "NOAEL", "setting": "[12]; read-out: NOAEL fetal viability", "result": 90, "unit": "mg/kg/day"}, {"measurement": "NOAEL", "setting": "[12]; read-out: NOAEL maternal toxicity", "result": 30, "unit": "mg/kg/day"}]}
